#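 Cells were grown in 96-well plates and exposed to each compound for 48 hours at five concentrations; endpoints were interpolated linearly between bracketing concentrations, or set to the highest concentration if not reached. TGI marks complete inhibition of growth.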
# Legend:
# Assay in all cases: NCI-60 cell line screen, 48 h
# SK-MEL-2 melanoma = system: SK-MEL-2 melanoma
# ACHN renal = system: ACHN renal
# KM20L2 colon = system: KM20L2 colon
# MDA-N = system: MDA-N
# HOP-18 NSCLC = system: HOP-18 NSCLC
# OVCAR-4 ovarian = system: OVCAR-4 ovarian
# DMS 114 small cell lung = system: DMS 114 small cell lung
# M14 melanoma = system: M14 melanoma
# LOX IMVI melanoma = system: LOX IMVI melanoma
# HL-60(TB) leukemia = system: HL-60(TB) leukemia
# NCI/ADR-RES ovarian = system: NCI/ADR-RES ovarian
# SF-295 CNS = system: SF-295 CNS
# UACC-257 melanoma = system: UACC-257 melanoma
# OVCAR-5 ovarian = system: OVCAR-5 ovarian
# LXFL 529 NSCLC = system: LXFL 529 NSCLC
# K-562 leukemia = system: K-562 leukemia
# HS 578T breast = system: HS 578T breast
# HCT-116 colon = system: HCT-116 colon
# SNB-19 CNS = system: SNB-19 CNS
# DU-145 prostate = system: DU-145 prostate
# BT-549 breast = system: BT-549 breast
# IGROV1 ovarian = system: IGROV1 ovarian
# MOLT-4 leukemia = system: MOLT-4 leukemia
# HOP-62 NSCLC = system: HOP-62 NSCLC
# 786-0 renal = system: 786-0 renal
# A549 NSCLC = system: A549 NSCLC
# U251 CNS = system: U251 CNS
# SNB-78 CNS = system: SNB-78 CNS
# A498 renal = system: A498 renal
# OVCAR-8 ovarian = system: OVCAR-8 ovarian
# SK-OV-3 ovarian = system: SK-OV-3 ovarian
# SW-620 colon = system: SW-620 colon
# OVCAR-3 ovarian = system: OVCAR-3 ovarian
# HCC-2998 colon = system: HCC-2998 colon
# HOP-92 NSCLC = system: HOP-92 NSCLC
# MALME-3M melanoma = system: MALME-3M melanoma
# UACC-62 melanoma = system: UACC-62 melanoma
# SF-539 CNS = system: SF-539 CNS
# RXF 393 renal = system: RXF 393 renal
# NCI-H522 lung = system: NCI-H522 lung
# NCI-H23 lung = system: NCI-H23 lung
# SF-268 CNS = system: SF-268 CNS
# PC-3 prostate = system: PC-3 prostate
# UO-31 renal = system: UO-31 renal
# HCT-15 colon = system: HCT-15 colon
# M19-MEL melanoma = system: M19-MEL melanoma
# DLD-1 colon = system: DLD-1 colon
# EKVX NSCLC = system: EKVX NSCLC
# HT29 colon = system: HT29 colon
# SK-MEL-5 melanoma = system: SK-MEL-5 melanoma
# SN12C renal = system: SN12C renal
# MDA-MB-231 breast = system: MDA-MB-231 breast
# NCI-H226 lung = system: NCI-H226 lung
# SK-MEL-28 melanoma = system: SK-MEL-28 melanoma
# DMS 273 small cell lung = system: DMS 273 small cell lung
# TK-10 renal = system: TK-10 renal
# T-47D breast = system: T-47D breast
# KM12 colon = system: KM12 colon
# SNB-75 CNS = system: SNB-75 CNS
# CAKI-1 renal = system: CAKI-1 renal
# SR leukemia = system: SR leukemia
# XF 498 CNS = system: XF 498 CNS
# MDA-MB-435 = system: MDA-MB-435
# COLO 205 colon = system: COLO 205 colon
# RPMI-8226 leukemia = system: RPMI-8226 leukemia
# CCRF-CEM leukemia = system: CCRF-CEM leukemia
# NCI-H460 lung = system: NCI-H460 lung
# MCF7 breast = system: MCF7 breast
# RXF-631 renal = system: RXF-631 renal
smiles,measurement,setting,value
CC1OC(=O)C2CC3CCCCC3C(/C=C/C3CCCC(C)N3C)C12 (stereo unspecified),TGI,SK-MEL-2 melanoma,> 100 µM
same,TGI,ACHN renal,> 100 µM
same,TGI,KM20L2 colon,> 100 µM
same,TGI,MDA-N,> 100 µM
same,TGI,HOP-18 NSCLC,> 100 µM
same,TGI,OVCAR-4 ovarian,> 100 µM
same,TGI,DMS 114 small cell lung,> 100 µM
same,TGI,M14 melanoma,> 100 µM
same,TGI,LOX IMVI melanoma,> 100 µM
same,TGI,HL-60(TB) leukemia,> 100 µM
same,TGI,NCI/ADR-RES ovarian,> 100 µM
same,TGI,SF-295 CNS,> 68.1 µM
same,TGI,UACC-257 melanoma,> 100 µM
same,TGI,OVCAR-5 ovarian,> 100 µM
same,TGI,LXFL 529 NSCLC,> 100 µM
same,TGI,K-562 leukemia,> 100 µM
same,TGI,HS 578T breast,> 100 µM
same,TGI,HCT-116 colon,> 100 µM
same,TGI,SNB-19 CNS,> 100 µM
same,TGI,DU-145 prostate,> 100 µM
same,TGI,BT-549 breast,> 100 µM
same,TGI,IGROV1 ovarian,> 100 µM
same,TGI,MOLT-4 leukemia,> 100 µM
same,TGI,HOP-62 NSCLC,> 100 µM
same,TGI,786-0 renal,> 100 µM
same,TGI,A549 NSCLC,> 100 µM
same,TGI,U251 CNS,> 100 µM
same,TGI,SNB-78 CNS,> 52.8 µM
same,TGI,A498 renal,> 100 µM
same,TGI,OVCAR-8 ovarian,> 100 µM
same,TGI,SK-OV-3 ovarian,> 100 µM
same,TGI,SW-620 colon,> 100 µM
same,TGI,OVCAR-3 ovarian,> 100 µM
same,TGI,HCC-2998 colon,> 100 µM
same,TGI,HOP-92 NSCLC,> 100 µM
same,TGI,MALME-3M melanoma,> 100 µM
same,TGI,UACC-62 melanoma,> 100 µM
same,TGI,SF-539 CNS,> 100 µM
same,TGI,RXF 393 renal,> 100 µM
same,TGI,NCI-H522 lung,> 100 µM
same,TGI,NCI-H23 lung,> 100 µM
same,TGI,SF-268 CNS,> 100 µM
same,TGI,PC-3 prostate,> 100 µM
same,TGI,UO-31 renal,> 100 µM
same,TGI,HCT-15 colon,> 100 µM
same,TGI,M19-MEL melanoma,> 100 µM
same,TGI,DLD-1 colon,> 100 µM
same,TGI,EKVX NSCLC,> 100 µM
same,TGI,HT29 colon,> 100 µM
same,TGI,SK-MEL-5 melanoma,> 100 µM
same,TGI,SN12C renal,> 100 µM
same,TGI,MDA-MB-231 breast,> 100 µM
same,TGI,NCI-H226 lung,> 100 µM
same,TGI,SK-MEL-28 melanoma,> 100 µM
same,TGI,DMS 273 small cell lung,> 100 µM
same,TGI,TK-10 renal,> 100 µM
same,TGI,T-47D breast,> 100 µM
same,TGI,KM12 colon,> 100 µM
same,TGI,SNB-75 CNS,> 100 µM
same,TGI,CAKI-1 renal,> 100 µM
same,TGI,SR leukemia,> 100 µM
same,TGI,XF 498 CNS,> 100 µM
same,TGI,MDA-MB-435,> 100 µM
same,TGI,COLO 205 colon,> 100 µM
same,TGI,RPMI-8226 leukemia,> 100 µM
same,TGI,CCRF-CEM leukemia,> 100 µM
same,TGI,NCI-H460 lung,> 100 µM
same,TGI,MCF7 breast,> 100 µM
O=C(CC1(O)C(=O)Nc2ccc([N+](=O)[O-])cc21)c1ccc2ccccc2c1 (stereo unspecified),TGI,SK-MEL-2 melanoma,> 100 µM
same,TGI,ACHN renal,> 100 µM
same,TGI,KM20L2 colon,> 100 µM
same,TGI,OVCAR-4 ovarian,> 100 µM
same,TGI,DMS 114 small cell lung,> 100 µM
same,TGI,M14 melanoma,> 100 µM
same,TGI,HL-60(TB) leukemia,> 100 µM
same,TGI,SF-295 CNS,> 100 µM
same,TGI,UACC-257 melanoma,> 100 µM
same,TGI,OVCAR-5 ovarian,> 100 µM
same,TGI,LXFL 529 NSCLC,> 100 µM
same,TGI,K-562 leukemia,> 100 µM
same,TGI,HCT-116 colon,> 100 µM
same,TGI,SNB-19 CNS,> 100 µM
same,TGI,IGROV1 ovarian,> 100 µM
same,TGI,RXF-631 renal,> 100 µM
same,TGI,MOLT-4 leukemia,> 100 µM
same,TGI,HOP-62 NSCLC,> 100 µM
same,TGI,786-0 renal,> 100 µM
same,TGI,A549 NSCLC,> 100 µM
same,TGI,U251 CNS,> 100 µM
same,TGI,SNB-78 CNS,> 100 µM
same,TGI,A498 renal,> 100 µM
same,TGI,OVCAR-8 ovarian,> 100 µM
same,TGI,SK-OV-3 ovarian,> 100 µM
same,TGI,SW-620 colon,> 100 µM
same,TGI,OVCAR-3 ovarian,> 100 µM
same,TGI,HCC-2998 colon,> 100 µM
same,TGI,MALME-3M melanoma,> 100 µM
same,TGI,UACC-62 melanoma,> 100 µM
same,TGI,SF-539 CNS,> 100 µM
same,TGI,RXF 393 renal,> 100 µM
same,TGI,NCI-H522 lung,> 100 µM
same,TGI,NCI-H23 lung,> 100 µM
same,TGI,SF-268 CNS,> 100 µM
same,TGI,UO-31 renal,> 100 µM
same,TGI,HCT-15 colon,> 100 µM
same,TGI,M19-MEL melanoma,> 100 µM
same,TGI,DLD-1 colon,> 100 µM
same,TGI,EKVX NSCLC,> 100 µM
same,TGI,HT29 colon,> 100 µM
same,TGI,SN12C renal,> 100 µM
same,TGI,NCI-H226 lung,> 100 µM
same,TGI,SK-MEL-28 melanoma,> 100 µM
same,TGI,DMS 273 small cell lung,> 100 µM
same,TGI,TK-10 renal,> 100 µM
same,TGI,KM12 colon,> 100 µM
same,TGI,SNB-75 CNS,> 100 µM
same,TGI,SR leukemia,> 100 µM
same,TGI,COLO 205 colon,> 100 µM
same,TGI,RPMI-8226 leukemia,> 100 µM
same,TGI,CCRF-CEM leukemia,> 100 µM
same,TGI,NCI-H460 lung,> 100 µM
